A value given as a limit tells only on which side of the number the result lay.

Chain of Protein kinase C theta type (Q04759 whole entry): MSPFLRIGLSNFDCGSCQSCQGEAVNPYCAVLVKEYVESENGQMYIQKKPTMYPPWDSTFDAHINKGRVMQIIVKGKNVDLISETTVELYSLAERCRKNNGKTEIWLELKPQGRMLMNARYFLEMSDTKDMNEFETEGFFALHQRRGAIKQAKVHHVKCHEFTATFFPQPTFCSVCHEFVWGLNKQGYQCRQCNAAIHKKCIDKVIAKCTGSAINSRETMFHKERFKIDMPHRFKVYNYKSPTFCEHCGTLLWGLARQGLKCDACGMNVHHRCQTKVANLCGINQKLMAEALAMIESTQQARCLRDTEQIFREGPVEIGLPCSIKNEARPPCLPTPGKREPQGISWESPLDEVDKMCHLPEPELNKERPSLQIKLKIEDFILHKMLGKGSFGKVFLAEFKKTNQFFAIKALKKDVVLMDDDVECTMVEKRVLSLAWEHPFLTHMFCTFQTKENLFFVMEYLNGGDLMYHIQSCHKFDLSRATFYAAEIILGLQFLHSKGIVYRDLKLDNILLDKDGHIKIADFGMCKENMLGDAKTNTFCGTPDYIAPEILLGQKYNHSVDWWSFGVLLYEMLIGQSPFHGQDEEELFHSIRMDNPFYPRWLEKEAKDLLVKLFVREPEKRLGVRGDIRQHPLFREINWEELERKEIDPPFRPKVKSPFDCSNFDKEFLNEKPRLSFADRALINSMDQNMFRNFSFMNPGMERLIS

This assay concerns the target Protein kinase C theta type (Homo sapiens, UniProt Q04759). Description: Inhibition of PKCtheta (unknown origin) by HTRF assay. In general terms: TR-FRET usually uses a lanthanide donor and a delayed reading to cut background.
Regarding `O=C1NC(O)c2c1c1c3ccccc3[nH]c1c1[nH]c3ccccc3c21` (centres undefined), the half-inhibitory concentration (IC50) is > 2500 nM. For the compound `C[C@@H]1O[C@@H](n2c3ccccc3c3c4c(c5c6ccccc6[nH]c5c32)CNC4=O)[C@H](O)[C@H](O)[C@H]1O`, the half-inhibitory concentration (IC50) was > 2500 nM. The same measure for `C[C@@H]1O[C@@H](n2c3ccccc3c3c4c(c5c6ccccc6[nH]c5c32)CNC4=O)C[C@@H](N)[C@H]1O`: 260 nM; for `CC(=O)N[C@@H]1C[C@H](n2c3ccccc3c3c4c(c5c6ccccc6[nH]c5c32)CNC4=O)O[C@@H](C)[C@@H]1O`: > 2500 nM.

For `CC(=O)N[C@H]1C[C@H]2O[C@@](C)([C@@H]1O)n1c3ccccc3c3c4c(c5c6ccccc6n2c5c31)C(=O)NC4`, the IC50 stood at 270 nM. For the compound `CC(=O)N[C@@H]1C[C@H](n2c3ccccc3c3c4c(c5c6cc(O)ccc6[nH]c5c32)CNC4=O)O[C@@H](C)[C@@H]1O`, the IC50 is > 2500 nM.

As to `C[C@H]1O[C@@H]2C[C@](O)([C@H]1O)n1c3ccccc3c3c4c(c5c6cc(O)ccc6n2c5c31)C(=O)NC4`, the IC50 was > 2500 nM. For `COC1NC(=O)c2c1c1c3ccccc3[nH]c1c1[nH]c3ccc(O)cc3c21` (centres undefined), the IC50 was > 2500 nM.

On to `O=C1NCc2c1c1c3ccccc3[nH]c1c1[nH]c3ccc(O)cc3c21`, for which the 50% inhibitory concentration (IC50) is > 2500 nM. The same measure for `CC(=O)N[C@@H]1C[C@H](n2c3ccc(O)cc3c3c4c(c5c6ccccc6[nH]c5c32)CNC4=O)O[C@@H](C)[C@@H]1O`: 280 nM; for `C[C@@H]1O[C@@H](n2c3ccc(O)cc3c3c4c(c5c6ccccc6[nH]c5c32)CNC4=O)C[C@@H](N)[C@H]1O`: > 2500 nM; for `C[C@@H]1O[C@@H]2C[C@](O)([C@H]1O)n1c3ccccc3c3c4c(c5c6cc(O)ccc6n2c5c31)C(=O)NC4`: > 2500 nM. The value for `O=C1NCc2c1c1c3cc(O)ccc3[nH]c1c1[nH]c3ccccc3c21` was 2110 nM.

`C[C@@H]1O[C@@H](n2c3ccccc3c3c4c(c5c6ccccc6[nH]c5c32)C(=O)NC4=O)[C@H](O)[C@H](O)[C@H]1O`: the IC50 was > 2500 nM. The value for `C[C@@H]1O[C@@H](n2c3ccccc3c3c4c(c5c6ccccc6[nH]c5c32)CNC4=O)C[C@@H](NC=O)[C@H]1O` was > 2500 nM; that for `CNC(=O)C[C@H]1O[C@@](C)(C(=O)OC)n2c3ccccc3c3c4c(c5c6ccccc6n1c5c32)C(=O)NC4` was > 2500 nM; that for `CO[C@@H]1[C@H](N(C)C=O)C[C@H]2O[C@]1(C)n1c3ccccc3c3c4c(c5c6ccccc6n2c5c31)C(=O)NC4` was 250 nM. With `C[C@@H]1O[C@@H](n2c3ccc(O)cc3c3c4c(c5c6ccccc6[nH]c5c32)CNC4=O)[C@H](O)[C@H](O)[C@H]1O`, the IC50 is > 2500 nM. The value for `COC(=O)[C@@]1(OC)C[C@H]2O[C@]1(C)n1c3ccccc3c3c4c(c5c6ccccc6n2c5c31)C(=O)NC4` was 520 nM. Consider `C[C@]12O[C@H](C[C@]1(O)C(=O)O)n1c3ccccc3c3c4c(c5c6ccccc6n2c5c31)C(=O)NC4=O`, for which the 50% inhibitory concentration (IC50) was 1860 nM. The same measure for `CO[C@H]1NC(=O)c2c1c1c3ccccc3[nH]c1c1c2c2ccccc2n1[C@@H]1O[C@@H](C)[C@H](O)[C@@H](O)[C@H]1O`: > 2500 nM; for `CO[C@H]1NC(=O)c2c1c1c3ccccc3n3c1c1c2c2ccccc2n1[C@@H]1O[C@@]3(C)[C@H](OC)[C@@H](O)[C@H]1O`: 890 nM.

Regarding `CNn1c2ccccc2c2c3c(c4c5ccccc5[nH]c4c21)C(=O)NC3`, the IC50 was > 2500 nM.

`C[C@]12O[C@H](C[C@]1(O)C(=O)O)n1c3ccccc3c3c4c(c5c6ccccc6n2c5c31)CNC4=O` yielded an IC50 of 5590 nM. The value for `CO[C@@H]1[C@H](NC=O)C[C@H]2O[C@]1(C)n1c3ccccc3c3c4c(c5c6ccccc6n2c5c31)C(=O)NC4` was > 2500 nM; that for `CO[C@@H]1C(=O)C[C@H]2O[C@]1(C)n1c3ccccc3c3c4c(c5c6ccccc6n2c5c31)C(=O)NC4` was > 2500 nM. Compound `C[C@@H]1O[C@@H](n2c3ccccc3c3c4c(c5c6ccccc6[nH]c5c32)C(=O)NC4=O)C[C@@H](NC=O)[C@H]1O` registered an IC50 of 4760 nM. Compound `CO[C@@H]1[C@H](N)C[C@H]2O[C@]1(C)n1c3ccccc3c3c4c(c5c6ccccc6n2c5c31)C(=O)NC4=O` had an IC50 of 36 nM.

Regarding `CO[C@H]1[C@@H](N2CC[C@@H](O)C2=O)C[C@@H]2O[C@@]1(C)n1c3ccccc3c3c4c(c5c6ccccc6n2c5c31)C(=O)NC4`, it took 170 nM to reach half-maximal inhibition (IC50). The value for `C[C@@H]1O[C@@H](n2c3ccccc3c3c4c(c5c6ccccc6[nH]c5c32)C(=O)NC4=O)C[C@@H](N)[C@H]1O` was 1180 nM; that for `CO[C@@H]1[C@@H](O)[C@@H](O)[C@H]2O[C@]1(C)n1c3ccccc3c3c4c(c5c6ccccc6n2c5c31)C(=O)NC4=O` was 1420 nM. The value for `CO[C@@H]1[C@H](NC(C)=O)C[C@H]2O[C@]1(C)n1c3ccccc3c3c4c(c5c6ccccc6n2c5c31)C(=O)NC4` was 38 nM; that for `COC(=O)[C@H]1C[C@H]2O[C@]1(C)n1c3ccccc3c3c4c(c5c6ccccc6n2c5c31)C(=O)NC4` was 1680 nM; that for `CO[C@@H]1[C@H](NC(=O)C(=O)c2c[nH]c3ccccc23)C[C@H]2O[C@]1(C)n1c3ccccc3c3c4c(c5c6ccccc6n2c5c31)C(=O)NC4` was 1790 nM. The same measure for `CC(=O)N[C@@H]1C[C@H](n2c3ccccc3c3c4c(c5c6ccccc6[nH]c5c32)C(=O)NC4=O)O[C@@H](C)[C@@H]1O`: > 2500 nM. Compound `C[C@@H]1O[C@@H]2C[C@](O)([C@H]1O)n1c3ccccc3c3c4c(c5c6ccccc6n2c5c31)C(=O)NC4` came in with an IC50 of 1910 nM.

`COc1cc(/C=C(/C(N)=O)n2c3ccccc3c3c4c(c5c6ccccc6[nH]c5c32)CNC4=O)ccc1O`: the half-inhibitory concentration (IC50) was > 2500 nM. With `CO[C@@H]1/C(=N/O)C[C@H]2O[C@]1(C)n1c3ccccc3c3c4c(c5c6ccccc6n2c5c31)C(=O)NC4`, the IC50 was > 2500 nM. The compound `CO[C@@H]1[C@@H](O)[C@@H](O)[C@H]2O[C@]1(C)n1c3ccccc3c3c4c(c5c6ccccc6n2c5c31)C(=O)N[C@H]4O` showed an IC50 of 2250 nM. `CO[C@@H]1[C@@H](O)[C@@H](O)[C@H]2O[C@]1(C)n1c3ccccc3c3c4c(c5c6ccccc6n2c5c31)C(=O)NC4`: half-maximal inhibition (IC50) required 1010 nM.

Turning to `CO[C@@H]1[C@H](O)C[C@H]2O[C@]1(C)n1c3ccccc3c3c4c(c5c6ccccc6n2c5c31)C(=O)NC4`, the IC50 came out at 1300 nM. The value for `C[C@]12O[C@H](C[C@@H](O)[C@H]1O)n1c3ccccc3c3c4c(c5c6ccccc6n2c5c31)CNC4=O` was 600 nM; that for `CO[C@@H]1[C@@H](O)C[C@H]2O[C@]1(C)n1c3ccccc3c3c4c(c5c6ccccc6n2c5c31)C(=O)NC4` was 480 nM; that for `CN[C@]1(C(=O)OC)C[C@H]2O[C@]1(C)n1c3ccccc3c3c4c(c5c6ccccc6n2c5c31)C(=O)NC4` was > 2500 nM.

Turning to `CO[C@@H]1[C@H](N(C)C(C)=O)C[C@H]2O[C@]1(C)n1c3ccccc3c3c4c(c5c6ccccc6n2c5c31)C(=O)NC4`, the IC50 was determined as 170 nM.

On to `CO[C@@H]1[C@@H](O)[C@@H](O)[C@H]2O[C@]1(C)n1c3ccccc3c3c4c(c5c6ccccc6n2c5c31)C(=O)N[C@@H]4O`, for which the IC50 is > 2500 nM. The same measure for `CO[C@@H]1C(C)(O)O[C@@H]2C[C@@]1(OC)n1c3ccccc3c3c4c(c5c6ccccc6n2c5c31)C(=O)NC4` (some centres undefined): > 2500 nM; for `CO[C@@H]1[C@H](N(C)C(C)=O)C[C@H]2O[C@]1(C)n1c3ccccc3c3c4c(c5c6ccccc6n2c5c31)C(=O)NC4=O`: 50 nM; for `CC(=O)N[C@H]1C[C@H](n2c3ccccc3c3c4c(c5c6ccccc6[nH]c5c32)CNC4=O)O[C@@H](C)[C@@H]1O`: 1050 nM. The same measure for `COC(=O)c1cccc2c1NC1(C[C@H]3O[C@]1(C)n1c4ccccc4c4c5c(c6c7ccccc7n3c6c41)C(=O)NC5)C(=O)O2` (some centres undefined): > 2500 nM; for `C[C@@H]1O[C@@H](n2c3ccccc3c3c4c(c5c6ccccc6[nH]c5c32)[C@H](O)NC4=O)[C@H](O)[C@H](O)[C@H]1O`: > 2500 nM; for `CN1Cc2c(c3c4ccccc4[nH]c3c3[nH]c4ccccc4c23)C1=O`: > 2500 nM. `COC1=C(C)O[C@@H]2C[C@@]1(OC)n1c3ccccc3c3c4c(c5c6ccccc6n2c5c31)C(=O)NC4` showed an IC50 of 370 nM. As for `C[C@H]1NC(=O)c2c1c1c3ccccc3[nH]c1c1[nH]c3ccccc3c21`, the IC50 was > 2500 nM. Regarding `C[C@H]1O[C@@H]2C[C@](O)([C@@H]1O)n1c3ccccc3c3c4c(c5c6ccccc6n2c5c31)C(=O)NC4`, the 50% inhibitory concentration (IC50) is > 2500 nM.

`CO[C@H]1C(=O)C[C@H]2O[C@]1(C)n1c3ccccc3c3c4c(c5c6ccccc6n2c5c31)C(=O)NC4`: the IC50 was 560 nM. The value for `CO[C@@H]1[C@H](N(C)C(N)=O)C[C@H]2O[C@]1(C)n1c3ccccc3c3c4c(c5c6ccccc6n2c5c31)C(=O)NC4` was 400 nM; that for `CO[C@@H]1[C@H](O)[C@H](O)[C@H](C)O[C@H]1n1c2ccccc2c2c3c(c4c5ccccc5[nH]c4c21)CNC3=O` was 9430 nM; that for `C[C@@H]1O[C@@H](n2c3ccccc3c3c4c(c5c6ccccc6[nH]c5c32)CNC4=O)C[C@@H](N)[C@H]1OC(O)C1CO1` (some centres undefined) was 5750 nM. The same measure for `CO[C@@H]1[C@@H](O)[C@@H](O)[C@H]2O[C@]1(C)n1c3ccccc3c3c4c(c5c6ccccc6n2c5c31)C(=O)N[C@H]4OC`: > 2500 nM; for `COC1NC(=O)c2c1c1c3ccccc3[nH]c1c1[nH]c3ccccc3c21` (centres undefined): > 2500 nM. The value for `CN[C@@H]1C[C@H]2O[C@@](C)([C@@H]1OC)n1c3ccccc3c3c4c(c5c6ccccc6n2c5c31)C(=O)NC4=O` (stereo in doubt; 14) was 17 nM. Turning to `O=C1NC(=O)c2c1c1c3ccccc3[nH]c1c1[nH]c3ccccc3c21` [STAUROSPORINE AGLYCON], the 50% inhibitory concentration (IC50) was > 2500 nM.

Consider `O=C1NCc2c1c1c3ccccc3[nH]c1c1[nH]c3ccccc3c21` [STAUROSPORINONE], for which the IC50 was > 2500 nM.

The term IC50 denotes the concentration at which inhibition is half-maximal.

(Values after ChEMBL document CHEMBL4665887, “Identification, Structure-Activity Relationships of Marine-Derived Indolocarbazoles, and a Dual PKCθ/δ Inhibitor with Potent Antipancreatic Cancer Efficacy” (J Med Chem, 2020).)
